Source: patent EP0319316A2, “Griseolic acid monoesters, their preparation and use” (SANKYO COMPANY LIMITED, priority 1987, dated 1989)

What was measured:
[1] = design: species or system Male albino rabbits; conditions: rabbit, in vivo
Experimental: Animals: Male albino rabbits, each weighing about 2.5 kg, were used in a group of 5 animals.
Drug preparation and administration: the compound of Example 19(b) was dissolved in a 0.1 M sodium phosphate buffer (pH 7.2) and administered topically to one eye of the rabbit twice a day at […] and 16:00 for one week, although the administration at 16:00 on the final day was not carried out. The other group was left intact as a control. Four hours after the final administration at 09:00, blood was collected from the marginal ear vein of the rabbit in a syringe, and was centrifuged to obtain the serum.
Biochemical analysis of the serum: the rabbit serum was biochemically analyzed for trigly.ceride (TG), total cholesterol (T-CHO), alkaline phosphatase (ALP), total protein (TP), phospholipid (PL), urea nitrogen (UN), glucose (GLU), transaminase (GOT and GPT), albumin (ALB), total calcium (CA), inorganic phosphorus (IP), creatinine (CRE), and ratio of albumin to globulin (A/G). The analysis was carried out by using an autoanalyzer (HITACHI, Japan).

[2] = system: Male F344 rats; test: Acute toxicity in the rat (Experiment 7); type: in vivo; conditions: single, observation one week
Experimental: Animals: Male F344 rats were used, each group consisting of 3 animals.
Drug preparation and administration: the compound of Example 19(b) was dissolved in distilled water and administered subcutaneously to the rats in a volume of 0.5 ml per 100 g of body weight. Observation of the rats was carried out over a period of one week.

CC(=O)Oc1ccc(COC(=O)C23C=C(C(O)C(=O)O)OC2C(O)C(n2cnc4c(N)ncnc42)O3)cc1 (stereo not shown) [Example 19(b), 9'-(4-Acetoxybenzyl) griseolate]
A/G [1]: 15.6 ± 2.5
ALB [1]: 5.0 ± 0.1 g/dL
ALP [1]: 379.0 ± 49.0 IU/ℓ
CA [1]: 14.0 ± 0.2 mg/dL
CRE [1]: 0.90 ± 0.05 mg/dL
GLU [1]: 137.0 ± 3.0 mg/dL
GOT [1]: 9.6 ± 1.5 IU/ℓ
GPT [1]: 19.6 ± 3.9 IU/ℓ
PL [1]: 91.8 ± 4.6 mg/dL
T-CHO [1]: 45.0 ± 3.2 mg/dL
TG [1]: 58.4 ± 5.4 mg/dL
TP [1]: 5.3 ± 0.2 g/dL
UN [1]: 17.9 ± 0.9 mg/dL
death rate ([2]; dose 25 mg/kg subcutaneously): 0/3
death rate ([2]; dose 50 mg/kg subcutaneously): 0/3
death rate ([2]; dose 100 mg/kg subcutaneously): 3/3
